In ChEMBL document CHEMBL1135289, “Anthranilate sulfonamide hydroxamate TACE inhibitors. Part 2: SAR of the acetylenic P1' group” (Bioorg Med Chem Lett, 2002):

Experiments:
THP-1 [1] = experiment: Compound was evaluated for its ability to inhibit LPS-stimulated TNF-alpha production in THP-1 cells at a concentration of 1 uM; type: functional; conditions: Homo sapiens
[2] = target: T1, Interstitial collagenase (Homo sapiens) (UniProt P03956); experiment: Inhibition of Matrix metalloprotease-1 at 10 uM
T1 sequence (whole entry): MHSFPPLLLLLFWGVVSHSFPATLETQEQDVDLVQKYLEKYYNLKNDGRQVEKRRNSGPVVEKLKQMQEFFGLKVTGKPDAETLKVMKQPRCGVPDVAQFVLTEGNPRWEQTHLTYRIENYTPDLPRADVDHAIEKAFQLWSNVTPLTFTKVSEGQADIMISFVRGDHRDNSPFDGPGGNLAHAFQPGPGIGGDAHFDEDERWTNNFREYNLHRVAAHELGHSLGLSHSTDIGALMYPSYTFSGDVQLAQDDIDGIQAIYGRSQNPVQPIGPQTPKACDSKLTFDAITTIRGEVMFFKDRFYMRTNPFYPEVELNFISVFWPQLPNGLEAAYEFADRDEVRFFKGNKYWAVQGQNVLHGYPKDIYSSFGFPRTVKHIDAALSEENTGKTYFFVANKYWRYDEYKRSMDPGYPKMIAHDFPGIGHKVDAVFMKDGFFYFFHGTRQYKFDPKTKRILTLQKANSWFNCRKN

[3] = target: T2, Matrix metalloproteinase-9 (Homo sapiens, UniProt P14780); experiment: Inhibition of Matrix metalloprotease-9 at 10 uM
T2 sequence (P14780 whole entry, the tested form may be a part): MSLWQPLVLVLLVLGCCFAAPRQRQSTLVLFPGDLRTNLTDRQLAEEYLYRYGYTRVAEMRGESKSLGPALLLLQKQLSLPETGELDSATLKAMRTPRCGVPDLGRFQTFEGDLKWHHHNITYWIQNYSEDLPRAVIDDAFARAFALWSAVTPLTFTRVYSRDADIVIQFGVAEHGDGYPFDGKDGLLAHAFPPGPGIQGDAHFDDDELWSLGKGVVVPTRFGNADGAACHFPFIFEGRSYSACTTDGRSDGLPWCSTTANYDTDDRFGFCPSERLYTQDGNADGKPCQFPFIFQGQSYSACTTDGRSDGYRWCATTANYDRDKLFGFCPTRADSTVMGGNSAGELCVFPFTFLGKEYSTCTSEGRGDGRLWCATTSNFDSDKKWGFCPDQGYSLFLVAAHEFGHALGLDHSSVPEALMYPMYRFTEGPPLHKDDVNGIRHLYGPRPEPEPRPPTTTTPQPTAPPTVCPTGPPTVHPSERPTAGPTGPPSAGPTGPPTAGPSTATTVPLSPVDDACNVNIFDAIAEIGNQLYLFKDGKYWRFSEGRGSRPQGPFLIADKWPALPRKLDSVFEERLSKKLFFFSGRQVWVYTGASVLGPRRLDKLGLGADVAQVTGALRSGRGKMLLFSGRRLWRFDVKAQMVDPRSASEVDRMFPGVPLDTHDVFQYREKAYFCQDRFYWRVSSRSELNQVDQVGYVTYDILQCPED

[4] = target: Disintegrin and metalloproteinase domain-containing protein 17 (Homo sapiens, UniProt P78536); experiment: Inhibition of Tumor necrosis factor alpha converting enzyme
Disintegrin and metalloproteinase domain-containing protein 17, sequence (P78536 whole entry, the tested form may be a part): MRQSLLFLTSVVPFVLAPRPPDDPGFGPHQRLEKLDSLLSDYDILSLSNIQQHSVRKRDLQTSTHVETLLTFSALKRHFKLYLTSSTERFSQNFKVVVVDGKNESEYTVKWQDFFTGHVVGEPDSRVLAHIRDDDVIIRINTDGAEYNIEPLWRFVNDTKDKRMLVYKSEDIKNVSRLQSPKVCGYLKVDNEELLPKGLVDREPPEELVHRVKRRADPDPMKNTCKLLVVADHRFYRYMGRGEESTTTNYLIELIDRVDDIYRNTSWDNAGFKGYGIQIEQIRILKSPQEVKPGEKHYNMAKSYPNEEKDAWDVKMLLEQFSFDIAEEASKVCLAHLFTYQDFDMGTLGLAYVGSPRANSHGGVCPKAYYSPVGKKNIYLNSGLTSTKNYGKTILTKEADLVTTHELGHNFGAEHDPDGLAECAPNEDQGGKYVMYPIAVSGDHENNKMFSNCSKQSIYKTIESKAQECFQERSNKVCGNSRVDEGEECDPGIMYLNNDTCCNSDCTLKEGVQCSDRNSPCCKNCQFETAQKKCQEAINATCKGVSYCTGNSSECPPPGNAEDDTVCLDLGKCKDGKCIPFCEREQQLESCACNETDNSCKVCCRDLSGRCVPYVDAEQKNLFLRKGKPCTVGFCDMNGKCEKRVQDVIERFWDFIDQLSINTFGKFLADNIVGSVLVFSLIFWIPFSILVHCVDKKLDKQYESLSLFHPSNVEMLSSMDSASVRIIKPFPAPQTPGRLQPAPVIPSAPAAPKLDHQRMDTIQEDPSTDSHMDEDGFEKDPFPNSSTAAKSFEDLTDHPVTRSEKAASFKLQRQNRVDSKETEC

THP-1 [5] = experiment: Inhibition of LPS-stimulated TNF-alpha production in THP-1 cells at a concentration of 3 uM; type: functional; conditions: Homo sapiens
Collagenase 3 [6] = target: T3, Collagenase 3 (Homo sapiens, UniProt P45452); experiment: Inhibition of Matrix metalloprotease-13 at 10 uM
Collagenase 3 [7] = target: T3, Collagenase 3; experiment: Inhibition of Matrix metalloprotease-13 activity
Interstitial collagenase = target: T4, Interstitial collagenase (Homo sapiens, UniProt P03956); experiment: Inhibition of Matrix metalloprotease-1
T4 sequence (P03956 whole entry): T1 sequence (whole entry)

[8] = target: T2, Matrix metalloproteinase-9; experiment: Inhibition of Matrix metalloprotease-9 activity
Collagenase 3 [9] = target: T3, Collagenase 3; experiment: Inhibition of Matrix metalloprotease-13
THP-1 [10] = experiment: Compound was evaluated for its ability to inhibit […] production using THP-1 cellular assay at a concentration of 1 uM; type: functional; conditions: Homo sapiens
Collagenase 3 [11] = target: T3, Collagenase 3; experiment: Inhibition of Matrix metalloprotease-13 at 1 uM
[12] = target: T2, Matrix metalloproteinase-9; experiment: Inhibition of Matrix metalloprotease-9 at 1 uM

Row | inhibition [2] [%] | Structure (SMILES) | IC50 [4] [nM] | inhibition at 3 µM (THP-1 [5]) [%] | further results
1 |  | Cc1cc(Br)cc(C(=O)NO)c1N(C)S(=O)(=O)c1ccc(OCC#CCO)cc1 |  |  | inhibition at 1 µM (THP-1 [1]): 69%
2 | 35 | CC#CCOc1ccc(S(=O)(=O)N(C)c2ccccc2C(=O)NO)cc1 | 27 | 32 | inhibition [3]: 61%
3 | 26 | CNCC#CCOc1ccc(S(=O)(=O)N(C)c2c(C)cc(Br)cc2C(=O)NO)cc1 |  |  | 
4 | 6 | CC#CCOc1ccc(S(=O)(=O)Nc2c(C)cccc2C(=O)NO)cc1 | 84 | 7 | inhibition (Collagenase 3 [6]): 42%
5 |  | CC#CCOc1ccc(S(=O)(=O)N(C)c2c(C(=O)NO)cc(-c3ccccc3)cc2C2CCN(C)CC2)cc1 | 42 | 95 | IC50 (Collagenase 3 [7]): 47 nM; IC50 (Interstitial collagenase): 1920 nM; IC50 [8]: 28 nM
6 |  | COc1ccc(S(=O)(=O)N(C)c2c(C(=O)NO)cc(Br)cc2C2CCN(C)CC2)cc1 | 26 | 42 | IC50 (Collagenase 3 [7]): 5 nM; IC50 (Interstitial collagenase): 194 nM; IC50 [8]: 2 nM
7 | 85 | CC#CCOc1ccc(S(=O)(=O)N(C)c2c(C)cccc2C(=O)NO)cc1 | 28 | 55 | IC50 (Collagenase 3 [7]): 416 nM
8 |  | CC#CCOc1ccc(S(=O)(=O)N(C)c2c(C(=O)NO)cc(Br)cc2C2CCN(C)CC2)cc1 | 25 | 94 | IC50 (Collagenase 3 [9]): 252 nM; IC50 [8]: 166 nM
9 |  | CC#CCOc1ccc(S(=O)(=O)N(C)c2c(C)cc(Br)cc2C(=O)NO)cc1 |  |  | inhibition at 1 µM (THP-1 [10]): 59%
10 | 21 | CCN(CC)CC#CCOc1ccc(S(=O)(=O)N(C)c2c(C)cc(Br)cc2C(=O)NO)cc1 |  |  | 
11 | 32 | Cc1cc(Br)cc(C(=O)NO)c1N(C)S(=O)(=O)c1ccc(OCC#CCNCCCN(C)C)cc1 |  |  | 
12 |  | CCCCOc1ccc(S(=O)(=O)N(C)c2c(C)cc(Br)cc2C(=O)NO)cc1 | 67 | 0 | 

Row | Structure (SMILES) | inhibition [2] [%] | IC50 [4] [nM] | inhibition at 3 µM (THP-1 [5]) [%] | further results
13 | Cc1cc(Br)cc(C(=O)NO)c1N(C)S(=O)(=O)c1ccc(OCc2cccnc2)cc1 | 42 | 28 | 9 | inhibition (Collagenase 3 [11]): 48%; inhibition [12]: 28%
